Measurements from US5824668A, “Formulation for administration of steroid compounds” (priority 1996, dated 1998).
“Also recorded” adds a separate entry of the source.

Columns and labels:
[1] = cited from earlier work; for influence on stabilization of mitomycin-C: acidic aqueous media, pH ranges studied
[2] = cited from earlier work; for oxidation at C-3 position to form etiocholandione: oral or parenteral; for recovery in the urine: parenteral routes; for conversion in serum: normal and obese subjects, unpublished data
[3] = system: aplastic anemia patients; details: cited from earlier work; for patients with hematologic responses lasting longer than six months: of 43 patients treated with either α- and/or β ET, im
[4] = system: genetically obese mice; details: cited from earlier work; for anti-obesity effect / development of obesity / weight reduction after obesity: supplied in the diet, diabetic genetically obese mice
[5] = cited from earlier work; for pyrogenic reaction: intramuscular injection
[6] = system: genetically obese and diabetic mice; details: cited from earlier work; for effectiveness relative to DHEA in preventing development of diabetes: C57BL/KsJ-db/db diabetic mice; for blood sugar / effect on the pancreas (granulation of islet cells) / plasma insulin concentrations: Coleman 1984
[7] = system: severely diabetic mammals; details: oral; cited from earlier work
[8] = system: rats and mice; details: cited from earlier work
[9] = system: female patients; details: cited from earlier work
[10] = system: auto-immune diseases; details: cited from earlier work
[11] = system: Prader-Willi Syndrome; details: cited from earlier work
[12] = system: obese subjects; details: oral, cited from earlier work
[13] = Dissolution of 5β steroid in water or in hydroxypropyl-β-cyclodextrin solution (Examples I-VII); format: physicochemical
Description: 12 milligrams (mg) of Etiocholandione (Steraloids, Inc. New Hampshire) was stirred and shaken with 0.5 ml of water in a test tube.
A 50% solution of hydroxypropyl-β-cyclodextrin was prepared as follows. 5 grams of pyrogen free hydroxypropyl-β-cyclodextrin (sold under the trade name Encapsin, Amaizo, Inc., Hammond, Ind., USA) was weighed on an analytical scale and placed in a graduated cylinder. Water was added with shaking until the volume reached 10 ml.
0.5 ml of the 50% solution of hydroxypropyl-β-cyclodextrin was added to the 0.5 ml of water containing 12 mg of Etiocholandione with additional shaking.
The previous experiment was repeated using a 50% solution of hydroxypropyl-β-cyclodextrin prepared as in Example 1. 50 mg of Etiocholandione was weighed and placed in a test tube. 2 ml of the 50% solution of hydroxypropyl-β-cyclodextrin was added to the test tube with shaking.
4 grams of hydroxypropyl-β-cyclodextrin was dissolved in 7 ml of distilled water to a total volume of 10 ml. Each ml of stock solution contained 0.4 g of solution hydroxypropyl-β-cyclodextrin. 20 mg of 3-β-hydroxy androstan-17-one (β-etiocholanolone) was shaken with 1 ml of the freshly prepared stock solution.
The same experiment as in example III was performed except that 40 mg of β-etiocholanolone was added to the stock solution of hydroxypropyl-β-cyclodextrin.
The same experiment as in example III was performed except that 20 mg of Etiocholandione was added to the stock solution of hydroxypropyl-β-cyclodextrin.
The same experiment as in example V was performed except that 40 mg of Etiocholandione was added to the stock solution of hydroxypropyl-β-cyclodextrin.
The same experiment as in Example V was performed except 80 mg or 250 mg ED was added to the stock solution.

[14] = Optical density of ET and ED dissolved in hydroxypropyl-β-cyclodextrin solutions; format: physicochemical
Description: The optical density (OD) of the ET and ED dissolved in hydroxypropyl-β-cyclodextrin solutions was determined at 400 NM against a blank control containing water and set at an OD of 0.0.

[15] = dissolved solution in hydroxypropyl-β-cyclodextrin, 400 NM, against water blank

dimethyl-β- cyclodextrin
influence on stabilization of mitomycin-C [1]: no influence on stabilization of mitomycin-C pH degradation

OC[C@H]1O[C@@H]2O[C@H]3[C@H](O)[C@@H](O)[C@@H](O[C@H]4[C@H](O)[C@@H](O)[C@@H](O[C@H]5[C@H](O)[C@@H](O)[C@@H](O[C@H]6[C@H](O)[C@@H](O)[C@@H](O[C@H]7[C@H](O)[C@@H](O)[C@@H](O[C@H]8[C@H](O)[C@@H](O)[C@@H](O[C@H]9[C@H](O)[C@@H](O)[C@@H](O[C@H]1[C@H](O)[C@H]2O)O[C@@H]9CO)O[C@@H]8CO)O[C@@H]7CO)O[C@@H]6CO)O[C@@H]5CO)O[C@@H]4CO)O[C@@H]3CO [γ-cyclodextrin]
stabilizing effect on mitomycin ([1]; acidic media at pH above 1): measurable stabilizing effect on mitomycin

C[C@]12CC[C@@H](O)C[C@H]1CC[C@@H]1[C@@H]2CC[C@]2(C)C(=O)CC[C@@H]12 [α ET]
oxidation at C3 position ([2]; IV, human subjects, isotopic ratio studies): rapidly oxidized and re-reduced | urinary excretion ([2]; normal individuals, endogenous): 3-5 mg per day | oxidation at C-3 position to form etiocholandione [2]: rapidly oxidized at the C-3 position | recovery in the urine [2]: almost exclusively α ET conjugates | patients with hematologic responses lasting longer than six months [3]: 17 | anti-obesity effect [4]: anti-obesity properties | development of obesity [4]: can prevent and arrest the development of obesity | weight reduction after obesity [4]: facilitate weight reduction after obesity | pyrogenic reaction [5]: acute pyrogenic reactions; also recorded: pyrogenic reaction and notable patient discomfort | effectiveness relative to DHEA in preventing development of diabetes [6]: four times more effective than DHEA | blood sugar [6]: reduce blood sugar | effect on the pancreas (granulation of islet cells) [6]: protective effect on the pancreas | plasma insulin concentrations [6]: increased plasma insulin concentrations

C[C@]12CC[C@H](O)C[C@@H]1CC[C@@H]1[C@@H]2CC[C@]2(C)C(=O)CC[C@@H]12 [epiandrosterone, reference compound]
effectiveness relative to DHEA in preventing development of diabetes [6]: but not androsterone or epiandrosterone

C[C@]12C=CC(=O)C=C1CC[C@@H]1[C@@H]2[C@@H](O)C[C@@]2(C)[C@H]1CC[C@]2(O)C(=O)CO [prednisolone, reference compound]
suppression of local irritation ([5]; minimal doses of 10 mg, with β-ET): sufficient to suppress any local irritation

C[C@]12CC[C@H](O)CC1=CC[C@@H]1[C@@H]2CC[C@]2(C)C(=O)CC[C@@H]12 [DHEA, 3-β-hydroxy-androst-5-en-17-one]
metabolism ([2]; humans): metabolized to testosterone (17-β-hydroxy-androst-4-en-3-one) and estradiol | rate of weight gain ([4]; genetically obese mice, variety of routes): decreased the rate of weight gain | glucose tolerance [7]: improved glucose tolerance | hyperglycemia [7]: restored hyperglycemia to normal levels | control of diabetes and obesity [8]: effective in controlling diabetes and obesity | development of diabetes ([6]; genetically obese and diabetic mice): markedly reduced the development of diabetes | acne [9]: severe acne

C[C@]12CC[C@@H](O)C[C@@H]1CC[C@@H]1[C@@H]2CC[C@]2(C)C(=O)CC[C@@H]12 [androsterone, reference compound]
effectiveness relative to DHEA in preventing development of diabetes [6]: but not androsterone or epiandrosterone

C[C@]12C=CC(=O)C=C1CC[C@@H]1[C@@H]2C(=O)C[C@@]2(C)[C@H]1CC[C@]2(O)C(=O)CO [prednisone]
side effects ([10]; in vivo): fluid retention and dramatic loss of bone or osteoporosis | symptoms of auto-immune diseases ([10]; ulcerative colitis, Chrone's disease, rheumatoid arthritis): effective in reducing the symptoms

C[C@]12CC[C@@H](O)C[C@H]1CC[C@@H]1[C@@H]2CC[C@]2(C)C(=O)CC[C@@H]12 [etiocholanolone]
weight change in treated individuals [11]: either weight loss or a decrease in the rate of weight gain

C[C@]12CCC(=O)C[C@H]1CC[C@@H]1[C@@H]2CC[C@]2(C)C(=O)CC[C@@H]12 [ED]
mean fat loss of the initial body fat content ([12]; 10-week period): about 5% | weight and body fat loss vs placebo ([12]; 14 subjects): lost significantly more weight and body fat | fat loss ([12]; four grams per day): significant fat loss | mean weight loss ([12]; four grams per day): 2.8±5.5 kilograms | mean weight loss normalized to body fat ([12]; four grams per day): 0.5±0.91 kilograms per week per 100 kilograms of body fat | subjective or objective side effects [12]: no significant subjective or objective side effects | serum levels of α ET after administering ED ([2]; in vivo): high levels of α ET can be achieved in the serum | conversion in serum [2]: quickly converted almost exclusively to α ET | dissolution in water ([13]; 12 mg in 0.5 ml of water, after 5 minutes): Appreciable quantities of compound remained out of solution | appearance of solution ([13]; 12 mg in 1 ml of 25% hydroxypropyl-β-cyclodextrin): A clear solution was obtained | time to complete dissolution ([13]; 20 mg in 1 ml stock solution (0.4 g/ml hydroxypropyl-β-cyclodextrin), room temperature, occasional shaking): ≤ 6 h | time to complete dissolution ([13]; 40 mg in 1 ml stock solution (0.4 g/ml hydroxypropyl-β-cyclodextrin)): ≤ 24 h | appearance of solution ([13]; 50 mg in 2 ml of 50% hydroxypropyl-β-cyclodextrin): clear solution with no accumulation of crystals | time to dissolution ([13]; 50 mg in 2 ml of 50% hydroxypropyl-β-cyclodextrin, with shaking): Within one minute | complete dissolution ([13]; 80 mg added to stock solution (0.4 g/ml hydroxypropyl-β-cyclodextrin)): In neither case did the ED completely dissolve | complete dissolution ([13]; 250 mg added to stock solution (0.4 g/ml hydroxypropyl-β-cyclodextrin)): In neither case did the ED completely dissolve | optical density (OD) [14, 15]: 0.12 | optical density (OD) ([14]; hydroxypropyl-β-cyclodextrin solution containing 80 mg of ED, 499 NM): 1.2

COC[C@H]1O[C@@H]2O[C@H]3[C@H](O)[C@@H](OC)[C@@H](O[C@H]4[C@H](O)[C@@H](OC)[C@@H](O[C@H]5[C@H](O)[C@@H](OC)[C@@H](O[C@H]6[C@H](O)[C@@H](OC)[C@@H](O[C@H]7[C@H](O)[C@@H](OC)[C@@H](O[C@H]8[C@H](O)[C@@H](OC)[C@@H](O[C@H]1[C@H](O)[C@H]2OC)O[C@@H]8COC)O[C@@H]7COC)O[C@@H]6COC)O[C@@H]5COC)O[C@@H]4COC)O[C@@H]3COC [heptakis-(2,6,-di-O-methyl)-β- cyclodextrin]
influence on stabilization of mitomycin-C [1]: no influence on stabilization of mitomycin-C pH degradation

OC[C@H]1O[C@@H]2O[C@H]3[C@H](O)[C@@H](O)[C@@H](O[C@H]4[C@H](O)[C@@H](O)[C@@H](O[C@H]5[C@H](O)[C@@H](O)[C@@H](O[C@H]6[C@H](O)[C@@H](O)[C@@H](O[C@H]7[C@H](O)[C@@H](O)[C@@H](O[C@H]1[C@H](O)[C@H]2O)O[C@@H]7CO)O[C@@H]6CO)O[C@@H]5CO)O[C@@H]4CO)O[C@@H]3CO [α-cyclodextrin]
influence on stabilization of mitomycin-C [1]: no influence on stabilization of mitomycin-C pH degradation

OC[C@H]1O[C@@H]2O[C@H]3[C@H](O)[C@@H](O)[C@@H](O[C@H]4[C@H](O)[C@@H](O)[C@@H](O[C@H]5[C@H](O)[C@@H](O)[C@@H](O[C@H]6[C@H](O)[C@@H](O)[C@@H](O[C@H]7[C@H](O)[C@@H](O)[C@@H](O[C@H]8[C@H](O)[C@@H](O)[C@@H](O[C@H]1[C@H](O)[C@H]2O)O[C@@H]8CO)O[C@@H]7CO)O[C@@H]6CO)O[C@@H]5CO)O[C@@H]4CO)O[C@@H]3CO [β-cyclodextrin]
influence on stabilization of mitomycin-C [1]: no influence on stabilization of mitomycin-C pH degradation

C[C@]12CC[C@H](O)C[C@H]1CC[C@@H]1[C@@H]2CC[C@]2(C)C(=O)CC[C@@H]12 [β ET, 3-β-hydroxy androstan-17-one]
conversion in serum [2]: quickly converted almost exclusively to α ET | oxidation at C-3 position to form etiocholandione [2]: rapidly oxidized at the C-3 position | recovery in the urine [2]: almost exclusively α ET conjugates | patients with hematologic responses lasting longer than six months [3]: 17 | hematologic recovery in non-responders to α ET ([3]; treated with β-ET): three patients who did not respond to α ET had a hematologic recovery | anti-obesity effect [4]: anti-obesity properties | development of obesity [4]: can prevent and arrest the development of obesity | weight reduction after obesity [4]: facilitate weight reduction after obesity | pyrogenic reaction [5]: little pyrogenic effect | effectiveness relative to DHEA in preventing development of diabetes [6]: four times more effective than DHEA | blood sugar [6]: reduce blood sugar | effect on the pancreas (granulation of islet cells) [6]: protective effect on the pancreas | plasma insulin concentrations [6]: increased plasma insulin concentrations | optical density (OD) [14, 15]: 0.12
